Source: US5025015A, “Thioformamidines, and use as medicaments” (Pierre Fabre Medicament, priority 1988, dated 1991)

Assays:
[1] = tested on: ulcers with acetyl salicylic acid; assay: activity toward ulcers with acetyl salicylic acid quantified in accordance with the Pfeiffer scale, male rats; type: in vivo; conditions: orally, acute
gastric secretion = gastric secretion by ligature of the pylorus using Shay's technique, male Sprague-Dawley rats; type: in vivo; conditions: rat, intraduodenal route, 50 mg/kg, acute
Protocol: 1. […] Acute treatment by intraduodenal route in a dose of 50 mg/kg.

Molecule | % Inhibition of the ulcer lesions ([1]; dose 40 mg/kg) | % Variation: decrease of the volume secreted (gastric secretion) | % Variation: increase of the intragastric pH (gastric secretion) | % Inhibition of the ulcer lesions ([1]; dose 50 mg/kg)
CN(C(=O)CSC1=NCCN1)c1ccc(Cl)cc1Cc1ccccc1 [Product 12] | 40% |  |  | 
CNC(=NCCSCc1nc[nH]c1C)NC#N [Cimetidine, N-Cyano-N'-methyl-N''-[2-[[(5-methyl-1H-imidazol-4-yl)methyl]thio]ethyl]guanidine, reference compound] | 46% | 47% | 90% | 
N-methyl 2-[2-(Δ2-imidazolinyl)thio]2'-benzoyl-4'-chloroacetanilide hydrochloride [Product 2] | 34% | 76% | 158% | 
CN(C(=O)CSC(=N)N)c1ccc(Cl)cc1C(=O)c1ccccc1Cl [Product 16] |  | 79% | 153% | 32%
N-methyl 2'-(orthochloro-α-hydroxybenzyl)-4'-chloro 2-[2-(Δ2-imidazolinyl)thio]acetanilide [Product 11] |  | 76% | 267% | 
CN(C(=O)CSc1ncc[nH]1)c1ccc(Cl)cc1C(=O)c1ccccc1 [Product 15] |  | 50% | 181% | 35%
CN(C(=O)CSc1ncc[nH]1)c1ccc(Cl)cc1C(=O)c1ccccc1Cl [Product 7] | 46% | 70% | 118% | 
